Reference: patent US5389645A, “Substituted tyrosyl diamine amide compounds” (G. D. Searle & Co., priority 1992, dated 1995)
pIC50: −log10 of the molar value. Structures can show the parent of a compound that is named as a salt.

Key:
[1] = biological target: μ opioid receptors (Rattus norvegicus, UniProt P33535); assay: Opiate Binding Assay, displacement of 3[H]-DAMPGO from μ opioid receptors (rat forebrain membranes)
[2] = biological target: δ opioid receptors (Rattus norvegicus, UniProt P33533); assay: Opiate Binding Assay, displacement of 3[H]-DSLET from δ opioid receptors (rat forebrain membranes)
Chain of δ opioid receptors (P33533 whole entry): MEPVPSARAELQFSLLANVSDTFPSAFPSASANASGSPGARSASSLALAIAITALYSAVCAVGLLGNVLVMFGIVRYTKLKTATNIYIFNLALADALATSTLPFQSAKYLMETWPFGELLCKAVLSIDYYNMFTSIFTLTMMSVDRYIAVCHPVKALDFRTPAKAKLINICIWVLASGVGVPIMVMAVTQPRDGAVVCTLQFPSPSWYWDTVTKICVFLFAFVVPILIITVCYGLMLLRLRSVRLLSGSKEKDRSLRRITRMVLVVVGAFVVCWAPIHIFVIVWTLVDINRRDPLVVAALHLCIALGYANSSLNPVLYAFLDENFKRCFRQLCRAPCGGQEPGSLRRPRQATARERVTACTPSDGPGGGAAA

[3] = extended use; cited from earlier work
[4] = test system: mice; assay: Writhing Assay (phenylbenzoquinone-induced writhing, analgesia, s.c.); assay type: in vivo, mouse; details: for relative potency in the Writhing Assay: among compounds of the invention tested; for Number of Animals out of 10 Exhibiting Analgesia: subcutaneous, 5 mpk, PBQ, mice
Description: The "Writhing Assay" is one of the most widely-used experimental procedures for measuring the analgesic activity of different narcotic and nonnarcotic analgesic agents, and involves the continuous, chemically-induced pain of visceral origin to an animal, such as a mouse or rat. [Gyires et al., Arch. int. Pharmacodyn, 267, 131-140 (1984); C. Vander Wende et al., Fed. Proc., 15, 494 (1956); Koster et al., Fed. Proc., 18, 412 (1959); and Witken et al., J. Pharmacol. Exp. Ther., 153,400-408 (1961).] Chemicals which may be used to induce this pain include phenylbenzoquinone (PBQ) and acetic acid. As a result of the chemical irritation to the animal, a characteristic stretching and writhing of the animal (dorsiflexion of the animal's back, extension of its hindlimbs and the strong contraction of its abdominal musculature) will generally occur. […] Drugs which reduce the number of writhes of the animal appear to restore the normal nociceptive threshold of the animal.
This assay was conducted generally in the manner described by R. I. Taber, "Predictive Value of Analgesic Assays in Mice and Rats," Advances in Biochemical Psychopharmacology, 8, 191 (1974).
Two hundred CD Charles River mice, weighing 20 to 30 grams, were used in this assay.
Twenty-five minutes after subcutaneous administration to the mice of 10 mg per kilogram (mpk) of body weight of a tyrosyl diamine amide compound of the invention (hereinafter "test compound"), 0.1 mL per 10 g of body weight of a 0.025% w/v solution of phenylbenzoquinone (PBQ) was injected intraperitoneally into each mouse. Some mice were given saline in place of a test compound, and were used as a control group.
Five minutes later, each mouse was individually placed into a glass beaker for observation, and the number of writhes occurring during the following ten-minute period was counted.
A compound was considered to be "active" (to have produced analgesia in a mouse) if, after the administration of 10 mg per kilogram (mpk) of body weight of the compound to the mouse, the number of writhes elicited by a mouse injected with PBQ was equal to, or less than, one-half the median number of writhes recorded for the saline-treated control group of mice that day, as described by R. I. Taber, supra.
The standard initial screening dose of a test compound employed in this assay was 10 mpk […]. […] (The slopes of the dose-response curves for the compounds analyzed were compared as described by Tallarida and Murray, Manual of Pharmacologic Calculations, Page 11 (Springer Verlag, New York, 1981)).

[5] = antagonized by naloxone; cited from earlier work
[6] = test system: the same receptor sites as do the opiates; details: cited from earlier work

Chain of μ opioid receptors (P33535 whole entry): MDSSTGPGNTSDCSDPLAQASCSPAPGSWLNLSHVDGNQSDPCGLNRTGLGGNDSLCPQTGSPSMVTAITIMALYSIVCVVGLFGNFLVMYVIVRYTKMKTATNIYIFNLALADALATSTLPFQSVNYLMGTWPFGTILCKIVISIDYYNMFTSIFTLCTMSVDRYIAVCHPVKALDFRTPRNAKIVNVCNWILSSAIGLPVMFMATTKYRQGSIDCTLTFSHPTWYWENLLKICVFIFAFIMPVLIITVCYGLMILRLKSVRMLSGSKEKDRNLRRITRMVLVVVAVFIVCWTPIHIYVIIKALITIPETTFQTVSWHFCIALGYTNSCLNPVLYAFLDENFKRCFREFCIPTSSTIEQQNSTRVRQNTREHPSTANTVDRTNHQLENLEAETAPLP

## Cc1cc(O)cc(C)c1C[C@H](N)C(=O)NCC(C)(C)NC(=O)CCc1ccccc1 [Example 14, αS-Amino-4-hydroxy-2,6-dimethyl-N-[2-methyl-2-[(1-oxo-3-phenylpropyl)amino]propyl]benzenepropanamide, hydrochloride]
[1]
  pIC50: 7.58
[2]
  pIC50: 7.18

## Cc1cc(O)cc(C)c1C[C@H](N)C(=O)NCC(C)(C)NC(=O)NCc1ccccc1 [Example 11, αS-amino-4-hydroxy-2,6-dimethyl-N-[2-methyl-2-[[[(phenylmethyl)amino]carbonyl]amino]propyl]benzenepropanamide, hydrochloride]
[1]
  pIC50: 7.23
[2]
  pIC50: 7.48

## CC(=O)Nc1ccc(O)cc1 [acetaminophen]
[3]
  undesirable side effects: liver toxicity

## Cc1cc(O)cc(C)c1C[C@H](N)C(=O)N1CCN(Cc2ccccc2)CC1 [Example 15, 1-[2S-Amino-3-(4-hydroxy-2,6-dimethylphenyl)-1-oxopropyl]-4-(phenylmethyl)piperazine, dihydrochloride]
[1]
  pIC50: 8.35
[2]
  pIC50: 7.83

## Cc1cc(O)cc(C)c1C[C@H](N)C(=O)NC(C)(C)CNC(=O)c1cnc2ccccc2c1 [Example 8, N-[2-[[2S-amino-3-(4-hydroxy-2,6-dimethylphenyl)-1-oxopropyl]amino]-2-methylpropyl]-3-quinolinecarboxamide, hydrochloride]
[1]
  pIC50: > 8.00
[2]
  pIC50: 7.60

## Cc1cc(O)cc(C)c1C[C@H](N)C(=O)NC(C)(C)CNC(=O)C#Cc1ccccc1 [Example 18, S-Amino-N-[1,1-dimethyl-2-[(1-oxo-3-phenyl-2-propynyl)amino]ethyl]-4-hydroxy-2,6-dimethylbenzenepropanamide, monohydrochloride]
[1]
  pIC50: > 8.00
[2]
  pIC50: 8.03

## Cc1cc(O)cc(C)c1C[C@H](N)C(=O)NC(C)(C)CNC(=O)CCc1ccccc1 [Example 13, αS-amino-N-[1,1-dimethyl-2-[(1-oxo-3-phenylpropyl)amino]ethyl]-4-hydroxy-2,6-dimethylbenzenepropanamide, hydrochloride]
[1]
  pIC50: > 8.00
[4]
  relative potency in the Writhing Assay: the most potent compounds of the invention tested in the Writhing Assay
  Number of Animals out of 10 Exhibiting Analgesia: 10/10
[2]
  pIC50: 8.26

## CC(C)C[C@H](NC(=O)[C@H](Cc1ccccc1)NC(=O)CNC(=O)CNC(=O)[C@@H](N)Cc1ccc(O)cc1)C(=O)O [leucine enkephalin, H2 N-Tyr-Gly-Gly-Phe-Leu-OH]
[5]
  morphine-like actions: exhibit some weak morphine-like actions
[6]
  binding to the same receptor sites as do the opiates: bind to the same receptor sites as do the opiates

## Cc1cc(O)cc(C)c1C[C@H](N)C(=O)NC(C)(C)CNC(=O)c1ccc2ccccc2n1 [Example 6, N-[2-[[2S-amino-3-(4-hydroxy-2,6-dimethylphenyl)-1-oxopropyl]amino]-2-methylpropyl]-2-quinolinecarboxamide, hydrochloride]
[1]
  pIC50: 8.89
[4]
  relative potency in the Writhing Assay: the most potent compounds of the invention tested in the Writhing Assay
  Number of Animals out of 10 Exhibiting Analgesia: 10/10
[2]
  pIC50: 8.46

## CSCC[C@H](NC(=O)[C@H](Cc1ccccc1)NC(=O)CNC(=O)CNC(=O)[C@@H](N)Cc1ccc(O)cc1)C(=O)O [methionine enkephalin, H2 N-Tyr-Gly-Gly-Phe-Met-OH]
[5]
  morphine-like actions: exhibit some weak morphine-like actions
[6]
  binding to the same receptor sites as do the opiates: bind to the same receptor sites as do the opiates

## Cc1cc(O)cc(C)c1C[C@H](N)C(=O)NC(C)(C)CNC(=O)OCc1ccccc1 [Example 3, Phenylmethyl[2-[[2S-amino-3-(4-hydroxy-2,6-dimethylphenyl)-1-oxopropyl]amino]-2-methylpropyl]carbamate, monohydrochloride]
[1]
  pIC50: 7.21
[2]
  pIC50: 8.00

## Cc1cc(O)cc(C)c1C[C@H](N)C(=O)NC(C)(C)CNC(=O)NCc1ccccc1 [Example 10, αS-amino-N-[1,1-dimethyl-2-[[[(phenylmethyl)amino]carbonyl]amino]ethyl]-4-hydroxy.2,6-dimethylbenzenepropanamide, hydrochloride]
[1]
  pIC50: > 8.00
[2]
  pIC50: 7.64
